Drawing on PubChem BioAssay (NCI), this text covers GI50 and TGI for 22 molecules.

Where “and” joins values, the source holds several entries; their conditions need not be identical. Identical values can stand only once.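 Where inhibition never reached the appropriate level, the endpoint shown equals the highest concentration tested. Otherwise, values were interpolated linearly from a five-concentration, 48-hour dose response in 96-well plates. Here, GI50 denotes the concentration required for 50% inhibition of growth. The concentration for full growth arrest is given as TGI.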

Test in all cases: NCI tumour cell line growth inhibition, 48 h
Assay [1] relates to NCI-H460 lung.
Assay [2] relates to RPMI-8226 leukemia.
For assay [3], the system named is RXF 393 renal.
Assay [4] deals with SF-268 CNS.
In assay [5] the test system is SF-295 CNS.
The subject of assay [6] is SF-539 CNS.
Assay [7] concerns SK-MEL-5 melanoma.
Assay [8] concerns SN12C renal.
Assay [9] deals with SNB-75 CNS.
The test system of assay [10] is U251 CNS.

As to `O=C(O)C(O)C(O)C1[O][Sb][O]C1CO` (stereo not drawn), the GI50 in [1] is above 100 µM; in [2], above 100000 nM; in [3], above 100000 nM; in [4], above 100 µM; in [5] it was above 100 µM; in assay [6] it was above 100000 nM. The GI50 in assay [7] is 27.2 µM and 12.7 µM; in [8], above 100 µM; in assay [9], above 100000 nM; in assay [10] it was above 100 µM. Besides, the TGI in assay [1], in assay [2], in [3], in assay [4], in [5] and in [6] was above 100 µM in each case. Further, the TGI in assay [7] was > 100 µM and 30.7 µM; in assay [8], above 100 µM; in [9], above 100 µM; in [10], above 100 µM.
As to `C=C1C(=O)C23C(CC(OC(C)=O)C1[C@@H]2OC(C)=O)C1(C)C(OC(C)=O)CCC(C)(C)C1C[C@@H]3OC(C)=O` (stereo partly drawn), the TGI turned out to be 3.37 µM in [1]; 4.68 µM in assay [2]; 0.831 µM in assay [3]; 2.98 µM in assay [4]; 2.86 µM in assay [5]; 3.16 µM in assay [6]. In addition, the TGI in assay [7] was 3.33 µM; in [8], 2.8 µM; in assay [9], 2.89 µM; in assay [10], 2.95 µM.
Consider `Nc1nc(Cl)cc(NCCCCCCCCCCNc2cc(Cl)nc(N)n2)n1`, for which the TGI was above 100 µM in assay [1]; 91.4 µM in assay [2]; above 100 µM in [3]; above 100 µM in assay [4]; 46.4 µM in assay [5]; above 100 µM in [6]. The TGI in assay [7] was 4.47 µM; in [8], above 100 µM; in assay [9], 68.8 µM; in [10], above 100 µM.
Turning to `O=C(O)C1C2CC3CC2CC31` (stereo not drawn), the TGI in assay [1], in [2], in [3], in [4], in assay [5] and in [6] was above 100 µM each time. Moreover, the TGI in [7], in assay [8], in assay [9] and in assay [10] was above 100 µM in each case.
On to `c1ccc(CN(Cc2ccccn2)Cn2cccn2)nc1`, for which the TGI in [1] was above 100 µM; in [2], 75.6 µM; in assay [3], above 100 µM; in assay [4], above 100 µM; in assay [5], above 100 µM; in [6], above 100 µM. Also, the TGI in assay [7], in [8], in assay [9] and in assay [10] was above 100 µM each time.
For `COCCOC(=O)CCn1cc(F)c(=O)[nH]c1=O`, the GI50 in assay [1] was 0.821 µg/mL; in [2], 13.8 µg/mL; in assay [3], 13.8 µg/mL; in assay [4], 102 µg/mL; in assay [5] it was 33.2 µg/mL; in assay [6], 7.42 µg/mL. Also, the GI50 in assay [7] is 20.4 µg/mL; in assay [8], 7.8 µg/mL; in assay [9], 88.4 µg/mL; in [10], 51 µg/mL. Also, the TGI in [1], in assay [2], in assay [3], in assay [4], in assay [5] and in assay [6] was above 150 µg/mL throughout. Also, the TGI in [7], in [8], in assay [9] and in assay [10] was above 150 µg/mL in each case.
As for `O=C(NNc1ccc([N+](=O)[O-])cc1)C1OC(CO)C(O)C1O` (stereo not drawn), the TGI in [1], in assay [2], in assay [3], in assay [4], in assay [5] and in assay [6] was above 100 µM in each case. For the same molecule, the TGI in assay [7], in assay [8], in assay [9] and in [10] was above 100 µM each time.
As to `C/C(=N\N=C(N)N)c1sc(-c2nc(C)c(/C(C)=N/N=C(N)N)s2)nc1C`, the TGI was above 100 µM in assay [1]; above 100 µM in [2]; above 95.3 µM in assay [3]; above 100 µM in assay [4]; above 100 µM in assay [5]; above 100 µM in assay [6]. Moreover, the TGI in [7], in [8], in [9] and in [10] was above 100 µM in each case.
Regarding `N#CC(C#N)=C/C=C/c1cccc([N+](=O)[O-])c1`, the GI50 was 1.21 µM in assay [1]; 1590 nM in [2]; 800 nM in assay [3]; 1.54 µM in assay [4]; 2.28 µM in assay [5]; 2550 nM in assay [6]. The GI50 is 1.35 µM in assay [7], 3.23 µM in assay [8], 1730 nM in assay [9] and 1.08 µM in assay [10]. In addition, the TGI turned out to be 2.68 µM in [1]; 9.6 µM in assay [2]; 2.06 µM in [3]; 12.9 µM in [4]; 10.3 µM in [5]; 18.4 µM in assay [6]. The TGI was 2.66 µM in assay [7], 30 µM in assay [8], 6.28 µM in [9] and 5.03 µM in assay [10].
Take `O=C1CCCc2c(O)ccc(O)c21`: the TGI in [1], in assay [2], in [3], in assay [4], in assay [5] and in assay [6] was above 100 µM throughout. Besides, the TGI in assay [7], in [8], in assay [9] and in [10] was above 100 µM throughout.
As to `OCC(O)C(OC1OC(CO)C(O)C(O)C1O)c1nn(-c2ccc(F)cc2)c2nc3cc(Cl)c(Cl)cc3cc12` (stereo not drawn), the TGI in [1], in assay [2], in [3], in [4], in assay [5] and in assay [6] was above 100 µM in each case. For the same molecule, the TGI in assay [8], in [9] and in assay [10] was above 100 µM in each case.
For the molecule `Fc1ccc(-c2c(-c3ccncc3)n(CCN3CCOCC3)c3cccnc23)cc1`, the GI50 in assay [1] is above 25 µM; in [2], above 25000 nM; in [3], above 25000 nM; in assay [4], above 25 µM; in assay [5], above 25 µM; in assay [6], above 25000 nM. Also, the GI50 was above 25 µM in [7], above 25 µM in [8], above 25000 nM in assay [9] and above 25 µM in assay [10]. Also, the TGI in assay [1], in assay [2], in assay [3], in assay [4], in assay [5] and in [6] was above 25 µM throughout. Moreover, the TGI in assay [7], in assay [8], in assay [9] and in assay [10] was above 25 µM each time.
Regarding `NC(=O)c1ccc(-c2c3ccccc3cc3c2ccc2ccccc23)cc1`, the GI50 is 3.31 µM in [1]; 5600 nM in assay [2]; 2120 nM in assay [3]; 2.81 µM in [4]; 5.11 µM in assay [5]; 3590 nM in assay [6]. Also, the GI50 in assay [7] is 3.1 µM; in [9], 2190 nM; in assay [10] it was 3.61 µM. Besides, the TGI in [1] turned out to be 14.9 µM; in assay [2], 40.7 µM; in assay [3], 7.48 µM; in assay [4], 18.1 µM; in assay [5] it was 31 µM; in assay [6], 15.5 µM. Also, the TGI in assay [7] turned out to be 14 µM; in [9] it was 9.15 µM; in [10], 19 µM.
In the case of `Cc1ccc(NC(=O)CCC(=O)C(C#N)c2ccc(Cl)cc2)cc1C` (stereo not drawn), the TGI in assay [1], in assay [2], in assay [3], in [4], in assay [5] and in assay [6] was above 100 µM throughout. Besides, the TGI in [7], in assay [8], in assay [9] and in [10] was above 100 µM each time.
In the case of `O=C(N/N=C\c1cc(Cl)ccc1O)N/N=C/c1cc(Cl)ccc1O`, the GI50 is 0.518 µM in assay [1]; 2790 nM in assay [2]; above 100000 nM in assay [3]; 9.74 µM in [4]; 2.37 µM in assay [5]; 2320 nM in [6]. The GI50 is 6.41 µM in assay [7], above 100 µM in assay [8], 969 nM in assay [9] and 0.997 µM in assay [10]. Besides, the TGI in [1], in assay [2], in [3], in assay [4], in assay [5] and in assay [6] was above 100 µM throughout. The TGI in [7], in assay [8], in assay [9] and in [10] was above 100 µM in each case.
As for `CN1C=CN(Cc2ccc(-c3ccccn3)nc2)[CH-]1.CN1C=CN(Cc2ccc(-c3ccccn3)nc2)[CH-]1.[Au+3]`, the GI50 in assay [1] was 3.37 µM; in [2] it was 1340 nM; in assay [3], 1880 nM; in [4], 5.91 µM; in assay [5], 4.87 µM; in assay [6], 2340 nM. In addition, the GI50 in [7] is 1.36 µM; in assay [8] it was 2.98 µM; in assay [9], 13900 nM; in assay [10], 4.35 µM. Besides, the TGI in assay [1] was above 100 µM; in assay [2], 20.1 µM; in assay [3], 17.8 µM; in [4], 26.2 µM; in assay [5] it was above 100 µM; in assay [6] it was 10.3 µM. For the same molecule, the TGI in assay [7] is 17.8 µM; in assay [8], above 45 µM; in assay [9] it was above 51.8 µM; in assay [10], 20.8 µM.
Regarding `Cc1[nH]nc(C(=O)N/N=C/c2cccs2)c1N=NN(C)C`, the TGI in assay [1] came to 34.7 µM; in assay [2] it was 89.7 µM; in assay [3], 36 µM; in assay [4] it was 37.1 µM; in assay [5], 45.2 µM; in assay [6], 36.5 µM. In addition, the TGI is 50.2 µM in [7], above 100 µM in assay [8], 8.85 µM in assay [9] and 32.1 µM in assay [10].
Consider `CC(C)c1cc2c(O)c(c1)Cc1cc(C(C)C)cc(c1O)Cc1cc(C(C)C)cc(c1O)Cc1cc(C(C)C)cc(c1O)Cc1cc(C(C)C)cc(c1O)Cc1cc(C(C)C)cc(c1O)C2`, for which the TGI in assay [1], in assay [2], in assay [3], in [4], in [5] and in assay [6] was above 100 µM throughout. The TGI in assay [7], in assay [8], in assay [9] and in [10] was above 100 µM each time.
For `O=[N+]([O-])C(=C(c1ccccc1)c1ccccc1)[N+](=O)[O-]`, the TGI stood at 21 µM in [1]; 6.43 µM in [2]; 6.71 µM in assay [3]; 12.7 µM in assay [4]; 26.3 µM in assay [5]; 26.5 µM in assay [6]. For the same molecule, the TGI amounted to 30.9 µM in assay [8], 28.5 µM in assay [9] and 26.4 µM in [10].
On to `C(=C1/CCCCC([n+]2ccccc2)=N1)/c1ccccc1`, for which the TGI in assay [1], in [2], in assay [3], in assay [4], in assay [5] and in assay [6] was above 100 µM throughout. The TGI in [8], in assay [9] and in assay [10] was above 100 µM throughout.
Turning to `CC(C)S(=O)(=O)n1c(N)nc2ccc(/C(=N/O)c3ccccc3)cc21`, the TGI was above 100 µM in assay [1]; 31.8 µM in assay [2]; 45.5 µM in assay [3]; above 100 µM in [4]; above 100 µM in [5]; 49.6 µM in assay [6]. The TGI in assay [8] was above 100 µM; in assay [9], 47.7 µM; in [10], above 100 µM.
Take `C[P+](C)(CC(F)(F)F)c1ccccc1`: the TGI in [1], in assay [2], in [3], in assay [5], in [6] and in [7] was above 100 µM throughout. Besides, the TGI in [8], in [9] and in assay [10] was above 100 µM throughout.
